Experiment [1] concerns the target human PDE4D (Homo sapiens, UniProt Q08499). Description: In-vitro real-time enzyme-coupled spectrophotometric assay for PDE4 enzymes. The class given is biochemical. Conditions: NADH-coupled assay, absorbance at 340 nm, read-out: IC50 for human PDE4D isozyme. As to the method:
(§1) In-vitro assay for PDE4 enzymes. The in-vitro activity of PDE4 enzymes and the in-vitro potency of therapeutic agents described in the present invention was measured using a real-time, enzyme-coupled spectrophotometric assay. By using three different coupling enzymes, the product of the PDE4 reaction is coupled to the oxidation of the reduced form β-nicotinamide adenine dinucleotide (NADH), which dissipation can be monitored spectrophotmetrically at […].
(§2) Assay description. Buffer A containing 50 mM Tris, pH 8.0, 16 mM MgCl2 and 80 mM KCl is prepared and stored at room temperature. Buffer B containing 50 mM Tris, pH 8.0 is prepared and stored at room temperature. Stock solutions of the following reagents are prepared in Buffer B and stored at −20° C.: Adenosine-5′-triphosphate (ATP), cyclic adenosine-5′-monophosphate (cAMP), phosphoenolpyruvate (PEP) and NADH. An assay mix is prepared by mixing Buffer A, […] (TCEP), ATP, PEP, NADH, myokinase (MK), pyruvate kinase (PK), lactate dehydroganese (LDH) and PDE4 to a final volume of 20 mL, which is enough for a single 96-well assay plate. Assay mix (180 μL) and test article (10 μL) in 1:1 DMSO/H2O mixture is pre-incubated at room temperature for 10 min. The enzymatic reaction is initiated by addition of cAMP (10 μL). Final concentration of all components in the assay (200 μL/well) are as follows: 10 mM MgCl2, 50 mM KCl, 5 mM TCEP, 2.5% DMSO, 0.4 mM NADH, 1 mM PEP, 0.04 mM ATP, 5 units MK, 1 unit PK, 1 unit LDH and appropriate amount of PDE4. Reaction progress curves are monitored in a plate reader capable of measuring light absorbance at 340 nm. A decrease in light absorbance at 340 nm is due to oxidation of NADH. Positive controls containing no test article and negative controls containing no test article and no cAMP are included on every assay plate. Reaction rates are determined from the slopes of the linear portions of the progress curves. All data is percent normalized with respect to controls and presented as percent inhibition. Compounds BB-01, BB-02, BB-03, BB-04, BB-05, BB-08, BB-09 gave IC50<5 uM for human PDE4D and PDE4B isozymes.

The target of experiment [2] is human PDE4B (Homo sapiens, UniProt Q07343). Described as above. The class given is biochemical. Particulars: NADH-coupled assay, absorbance at 340 nm, read-out: IC50 for human PDE4B isozyme. As to the method:
as §1, §2

human PDE4D, sequence (Q08499 whole entry): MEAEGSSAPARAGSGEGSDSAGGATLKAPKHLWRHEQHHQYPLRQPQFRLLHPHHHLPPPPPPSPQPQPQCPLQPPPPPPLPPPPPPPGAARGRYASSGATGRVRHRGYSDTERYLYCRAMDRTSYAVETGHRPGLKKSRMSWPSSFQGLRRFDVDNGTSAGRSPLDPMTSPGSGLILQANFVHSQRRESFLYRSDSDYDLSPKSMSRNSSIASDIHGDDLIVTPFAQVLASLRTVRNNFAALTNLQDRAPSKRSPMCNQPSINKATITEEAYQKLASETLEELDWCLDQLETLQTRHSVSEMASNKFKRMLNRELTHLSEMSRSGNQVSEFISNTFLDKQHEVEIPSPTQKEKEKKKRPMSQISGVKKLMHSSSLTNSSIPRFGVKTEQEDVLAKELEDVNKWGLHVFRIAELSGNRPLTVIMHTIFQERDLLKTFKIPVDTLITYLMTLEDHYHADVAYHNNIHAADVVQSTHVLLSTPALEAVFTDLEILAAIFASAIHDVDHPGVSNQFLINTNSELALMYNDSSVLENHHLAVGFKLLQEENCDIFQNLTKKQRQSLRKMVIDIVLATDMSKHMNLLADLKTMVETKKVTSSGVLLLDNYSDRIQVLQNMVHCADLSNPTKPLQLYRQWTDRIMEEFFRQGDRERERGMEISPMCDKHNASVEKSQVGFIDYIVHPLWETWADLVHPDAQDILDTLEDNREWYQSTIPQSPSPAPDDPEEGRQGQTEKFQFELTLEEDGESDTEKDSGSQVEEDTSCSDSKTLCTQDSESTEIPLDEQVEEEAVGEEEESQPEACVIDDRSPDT
human PDE4B, sequence (Q07343 whole entry): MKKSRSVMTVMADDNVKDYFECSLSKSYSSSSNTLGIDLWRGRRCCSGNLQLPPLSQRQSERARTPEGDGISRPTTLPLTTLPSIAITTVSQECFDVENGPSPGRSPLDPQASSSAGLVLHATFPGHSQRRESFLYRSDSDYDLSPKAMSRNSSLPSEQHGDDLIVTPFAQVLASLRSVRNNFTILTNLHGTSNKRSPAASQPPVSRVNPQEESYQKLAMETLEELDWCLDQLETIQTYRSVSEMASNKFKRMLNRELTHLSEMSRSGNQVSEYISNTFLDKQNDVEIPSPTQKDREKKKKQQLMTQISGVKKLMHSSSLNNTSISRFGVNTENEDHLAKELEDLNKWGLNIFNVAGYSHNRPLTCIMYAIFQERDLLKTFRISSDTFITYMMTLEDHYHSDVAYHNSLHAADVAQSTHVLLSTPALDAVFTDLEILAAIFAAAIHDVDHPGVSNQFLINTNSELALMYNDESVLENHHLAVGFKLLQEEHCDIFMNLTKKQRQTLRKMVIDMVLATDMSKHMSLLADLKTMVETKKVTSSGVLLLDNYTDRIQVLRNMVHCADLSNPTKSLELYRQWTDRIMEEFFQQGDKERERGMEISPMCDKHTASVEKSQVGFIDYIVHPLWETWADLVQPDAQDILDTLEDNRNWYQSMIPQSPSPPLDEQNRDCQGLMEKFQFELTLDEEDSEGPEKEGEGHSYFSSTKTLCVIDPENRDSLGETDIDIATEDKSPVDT

As for `O=C(O)C1CCN1c1ccc(Cc2cc3scnc3c(-c3cccc(Cl)c3)c2F)cn1` (racemic) [BB-01, 1-{5-[4-(3-chloro-phenyl)-5-fluorobenzothiazol-6-ylmethyl]-pyridin-2-yl}-azetidine-2-carboxylic acid], the IC50 in experiment [1] and in experiment [2] was less than 5 µM in each case.
`O=C(O)[C@@H]1CCCN1c1ccc(Cc2cc3scnc3c(-c3cccc(Cl)c3)c2F)cn1` [BB-03, (S)-1-{5-[4-(3-chloro-phenyl)-5-fluoro-benzothiazol-6-ylmethyl]-pyridin-2-yl}-pyrrolidine-2-carboxylic acid]: the IC50 in experiment [1] and in experiment [2] was less than 5 µM each time.
Turning to `O=C(O)[C@@H]1CCN1c1ccc(Cc2cc3scnc3c(-c3cccc(Cl)c3)c2F)cn1` [BB-04, (S)-1-{5-[4-(3-chloro-phenyl)-5-fluoro-benzothiazol-6-ylmethyl]-pyridin-2-yl}-azetidine-2-carboxylic acid], the 50% inhibitory concentration (IC50) in experiment [1] and in experiment [2] was less than 5 µM throughout.
Consider `O=C(O)[C@H]1CCN1c1ccc(Cc2cc3scnc3c(-c3cccc(Cl)c3)c2F)cn1` [BB-05, (R)-1-{5-[4-(3-chloro-phenyl)-5-fluoro-benzothiazol-6-ylmethyl]-pyridin-2-yl}-azetidine-2-carboxylic acid], for which the IC50 in experiment [1] and in experiment [2] was less than 5 µM throughout.
With `Cc1nc2c(-c3cccc(Cl)c3)cc(Cc3ccc(N4CC[C@H]4C(=O)O)nc3)cc2s1` [BB-08, (S)-1-{5-[4-(3-chloro-phenyl)-2-methyl-benzothiazol-6-ylmethyl]-pyridin-2-yl}-azetidine-2-carboxylic acid], the IC50 in experiment [1] and in experiment [2] was less than 5 µM each time.
`Cc1nc2c(-c3cccc(Cl)c3)cc(Cc3ccc(N4CC[C@@H]4C(=O)O)nc3)cc2s1` [BB-09, (R)-1-{5-[4-(3-chloro-phenyl)-2-methyl-benzothiazol-6-ylmethyl]-pyridin-2-yl}-azetidine-2-carboxylic acid]: the IC50 in experiment [1] and in experiment [2] was less than 5 µM each time.

The values are drawn from patent US20120207729A1, “SUBSTITUTED BENZOAZOLE PDE4 INHIBITORS FOR TREATING PULMONARY AND CARDIOVASCULAR DISORDERS” (DECODE GENETICS EHF, priority 2007, published 2012).
